In brackets after ≈: the same amount, converted by molar mass. Like-named read-outs stand apart in the source and are kept apart here.

We go through nine compounds from patent US20090186868A1, “Taxane Compound Having Azetidine Ring Structure” (Daiichi Sankyo Company Limited, priority 2005, published 2009).

For one series, the system named is B16 melanoma BL6. Nature of the series: Antitumor effect in mice subcutaneously transplanted with B16 melanoma BL6. The note with it: for Therapeutic index: MTD/MED; for Effective dose range: range from MED to MTD, antitumor effect of 58% or more considered effective. It is filed as in vivo, Mice (C57BL/6). An excerpt: (§1) Mice (C57BL/6, Charles River Japan) were subcutaneously transplanted with B16 melanoma BL6 (Cancer Res., Poste, G., Fidler, I. J. et al., 1980, 40:1636; Bioorg. Med. Chem. Lett., Takeda, Y. et al., 2003, 13:185-190), or M5076 (obtained from Japanese Foundation for Cancer Research), which is a histiocytoma expressing P-gp. Four days after the transplantation in the case of B16 melanoma BL6, or 8 to 10 days after the transplantation in the case of M5076, each test compound suspended in a 0.5% aqueous solution of carboxymethylcellulose sodium, or dissolved in EtOH:Tween 80:5% glucose=5:5:90 (v/v %) was orally (po) or intravenously (iv) administered to the mice. Ten days after the administration in the case of B16 melanoma BL6, or 8 to 10 days after the administration in the case of M5076, the mice were dissected, and tumor weights were measured. The antitumor effect was calculated in accordance with the following equation.
(§2) [1−(Average tumor weight of compound administration group/average tumor weight of solvent administration group)]×100
(§3) An antitumor effect of 58% or more was considered effective (Int. J. Cancer, 1989, 43:637-44), and the maximum tolerance dose (MTD, maximum dose not causing death, mg/kg) and minimum effective dose (MED, mg/kg) showing effectiveness were obtained, respectively. The therapeutic index was calculated in accordance with the equation: MTD/MED.
(§4) ND means that the test was not performed. The effective dose range means the range of from MED to MTD.

A short description of series [1]: Solubility in first and second solution for disintegration test (Japanese Pharmacopoeia). It is filed as physicochemical. The conditions noted are these: for solubility: thermodynamic from solid. The protocol: Solubility of each compound was determined in the first solution for disintegration test according to Japanese Pharmacopoeia (henceforth referred to as the first solution, solution obtained by adding 7 mL of hydrochloric acid and water to 2.00 g of sodium chloride to dissolve sodium chloride and fill up the solution to 1000 mL, pH 1.2) and the second solution for disintegration test according to Japanese Pharmacopoeia (henceforth referred to as the second solution, solution obtained by adding 118 mL of 0.2 mol/L solution of sodium hydroxide to 6.80 g of potassium dihydrogenphosphate, adding water to the mixture to dissolve potassium dihydrogenphosphate and filling up the solution to 1000 mL, pH 6.8).
Each test compound was dissolved in 100% dimethyl sulfoxide (DMSO) at a concentration of 10 mM, and 50 μL of the solution was lyophilized. The lyophilized test compound was added with 250 μL of the first solution or second solution, and the mixture was stored at room temperature for 12 hours or longer under light shielding, and filtered (0.7 μm). The filtrate was taken in a volume of 90 μL, and added with 50% DMSO (90 μL) to obtain a two-fold diluted solubility sample. The two-fold dilution solubility sample was taken in a volume of 20 μL, and added with 50% DMSO (180 μL) to obtain a […] diluted solubility sample. Solubility of each test sample was determined by quantifying the test compound in the resulting diluted solubility test samples using high-performance liquid chromatography.

Series [2] relates to M5076 (histiocytoma expressing P-gp). Kind of series: Antitumor effect in mice subcutaneously transplanted with M5076. It is filed as in vivo, Mice (C57BL/6). The conditions noted are these: for Therapeutic index: MTD/MED; for Effective dose range: range from MED to MTD, antitumor effect of 58% or more considered effective.
Description: as §1, §2, §3, §4

The mark [3] stands for this setting: first solution for disintegration test, pH 1.2, room temperature, 12 hours or longer.
[4] abbreviates: second solution for disintegration test, pH 6.8, room temperature, 12 hours or longer.
Setting [5] is: aqueous buffer, second solution for disintegration test, pH 6.8, room temperature, 12 hours or longer, read-out: Solubility (μg/mL) pH 6.8.
[6] abbreviates: simulated gastric fluid, first solution for disintegration test, pH 1.2, room temperature, 12 hours or longer, read-out: Solubility (μg/mL) pH 1.2.

Consider `CC(=O)OC12COC1CCC1(C)C3OC(CN4CCC4)OC3C3=C(C)C(OC(=O)C(O)C(CF)NC(=O)OC(C)(C)C)CC(O)(C(OC(=O)c4ccccc4)C12)C3(C)C` [Example 34, (1S,2S,3R,4S,5R,8R,9S,10R,13S)-4-(Acetoxy)-9,10-[(1S)-2-(azetidino)ethylidenedioxy]-2-(benzoyloxy)-5,20-epoxy-1-hydroxytax-11-en-13-yl (2R,3R)-3-(tert-butoxycarbonylamino)-4-fluoro-2-hydroxybutyrate], for which, in the series on B16 melanoma BL6 (B16 Melanoma BL6, iv), the Therapeutic index turned out to be 4.2 and the “Effective dose range” value lay in the range of 10.1 to 42.0 mg/kg. The “Solubility (μg/mL) pH 1.2” value in series [1] (setting [3]) came to 830 μg/mL. In addition, the “Solubility (μg/mL) pH 6.8” value in series [1] (setting [4]) was 310 μg/mL.

`CC(=O)O[C@@]12CO[C@@H]1CC[C@@]1(C)[C@@H]3O[C@H](CN4CC[C@H]4C(=O)N(C)C)O[C@@H]3C3=C(C)[C@@H](OC(=O)[C@H](O)[C@@H](NC(=O)OC(C)(C)C)c4ccccn4)C[C@@](O)([C@@H](OC(=O)c4ccccc4)[C@@H]12)C3(C)C` [Example 23, (1S,2S,3R,4S,5R,8R,9S,10R,13S)-4-(Acetoxy)-2-(benzoyloxy)-9,10-{(1S)-2-[(2S)-2-(dimethylcarbamoyl)azetidino]ethylidenedioxy}-5,20-epoxy-1-hydroxytax-11-en-13-yl (2R,3S)-3-(tert-butoxycarbonylamino)-2-hydroxy-3-(2-pyridyl)propionate] displayed a Therapeutic index in the series on B16 melanoma BL6 (B16 Melanoma BL6, po) of 2.9. Besides, the solubility was 1400 µg/mL (≈ 1480 µM) in series [1] (pH 1.2, simulated gastric fluid) and 360 µg/mL (≈ 380 µM) in series [1] (pH 6.8, aqueous buffer).

The compound `CC(=O)O[C@@]12CO[C@@H]1CC[C@@]1(C)[C@@H]3O[C@H](CN4CCC4)O[C@@H]3C3=C(C)[C@@H](OC(=O)[C@H](O)[C@@H](NC(=O)OC(C)(C)C)c4nccs4)C[C@@](O)([C@@H](OC(=O)c4ccccc4)[C@@H]12)C3(C)C` [Example 40, (1S,2S,3R,4S,5R,8R,9S,10R,13S)-4-(Acetoxy)-9,10-[(1S)-2-(azetidino)ethylidenedioxy]-2-(benzoyloxy)-5,20-epoxy-1-hydroxytax-11-en-13-yl (2R,3R)-3-(tert-butoxycarbonylamino)-2-hydroxy-3-(2-thiazolyl)propionate] came in with a Therapeutic index with B16 melanoma BL6 (B16 Melanoma BL6, iv) of 4.2. Moreover, the solubility in series [1] (setting [5]) was 150 µg/mL (≈ 170 µM); in series [1] (setting [6]), 1000 µg/mL (≈ 1130 µM).

As to `CC(=O)O[C@@]12CO[C@@H]1CC[C@@]1(C)[C@@H]3O[C@H](CN4CC(C)(O)C4)O[C@@H]3C3=C(C)[C@@H](OC(=O)[C@H](O)[C@@H](NC(=O)OC(C)(C)C)c4ncccc4F)C[C@@](O)([C@@H](OC(=O)c4ccccc4)[C@@H]12)C3(C)C` [Example 12, (1S,2S,3R,4S,5R,8R,9S,10R,13S)-4-(Acetoxy)-2-(benzoyloxy)-5,20-epoxy-1-hydroxy-9,10-[(1S)-2-(3-hydroxy-3-methylazetidino)ethylidenedioxy]tax-11-en-13-yl (2R,3S)-3-(tert-butoxycarbonylamino)-3-(3-fluoro-2-pyridyl)-2-hydroxypropionate], the Therapeutic index with B16 melanoma BL6 (B16 Melanoma BL6, po) is 4.1. For the same compound, the figures for the solubility in series [1] (setting [5]) and in series [1] (setting [6]) were 92 µg/mL (≈ 99.6 µM) and 1100 µg/mL (≈ 1190 µM), respectively.

Regarding `CC[C@H](NC(=O)OC(C)(C)C)[C@@H](O)C(=O)O[C@H]1C[C@@]2(O)[C@@H](OC(=O)c3ccccc3)[C@H]3[C@@](C)(CC[C@H]4OC[C@]43OC(C)=O)[C@@H]3O[C@H](CN4CCC4)O[C@@H]3C(=C1C)C2(C)C` [Example 37, (1S,2S,3R,4S,5R,8R,9S,10R,13S)-4-(Acetoxy)-9,10-[(1S)-2-(azetidino)ethylidenedioxy]-2-(benzoyloxy)-5,20-epoxy-1-hydroxy-tax-11-en-13-yl (2R,3S)-3-(tert-butoxycarbonylamino)-2-hydroxypentanoate], the Therapeutic index with B16 melanoma BL6 (B16 Melanoma BL6, iv) came out at 4.2; in the series with B16 melanoma BL6 (B16 Melanoma BL6, po), 2.0; in series [2] (M5076, iv), 1.4. The “Effective dose range” value with B16 melanoma BL6 (B16 Melanoma BL6, iv) is 7.21 to 30.0 mg/kg; in the series with B16 melanoma BL6 (B16 Melanoma BL6, po), 14.7 to 30.0 mg/kg; in series [2] (M5076, iv) it was 14.7 to 21.0 mg/kg. Further, in series [1] (setting [3]), the “Solubility (μg/mL) pH 1.2” value was determined as 670 μg/mL. In addition, the “Solubility (μg/mL) pH 6.8” value in series [1] (setting [4]) was 210 μg/mL.

`CC(=O)O[C@@]12CO[C@@H]1CC[C@@]1(C)[C@@H]3O[C@H](CN4CC(S(C)(=O)=O)C4)O[C@@H]3C3=C(C)[C@@H](OC(=O)[C@H](O)[C@@H](NC(=O)OC(C)(C)C)c4ncccc4F)C[C@@](O)([C@@H](OC(=O)c4ccccc4)[C@@H]12)C3(C)C` [Example 28, (1S,2S,3R,4S,5R,8R,9S,10R,13S)-4-(Acetoxy)-2-(benzoyloxy)-5,20-epoxy-1-hydroxy-9,10-{(1S)-2-[3-(methanesulfonyl)azetidino]ethylidenedioxy}tax-11-en-13-yl (2R,3S)-3-(tert-butoxycarbonylamino)-3-(3-fluoro-2-pyridyl)-2-hydroxypropionate]: the Therapeutic index with B16 melanoma BL6 (B16 Melanoma BL6, po) is recorded as 4.2. The solubility in series [1] (setting [5]) was 18 µg/mL (≈ 18.5 µM); in series [1] (setting [6]), 1300 µg/mL (≈ 1340 µM).

Take `CC(=O)O[C@@]12CO[C@@H]1CC[C@@]1(C)[C@@H]3O[C@H](CN4CC[C@H]4CO)O[C@@H]3C3=C(C)[C@@H](OC(=O)[C@H](O)[C@@H](NC(=O)OC(C)(C)C)c4ncccc4F)C[C@@](O)([C@@H](OC(=O)c4ccccc4)[C@@H]12)C3(C)C` [Example 22, (1S,2S,3R,4S,5R,8R,9S,10R,13S)-4-(Acetoxy)-2-(benzoyloxy)-5,20-epoxy-1-hydroxy-9,10-{(1S)-2-[(2S)-2-hydroxymethylazetidino]ethylidenedioxy}tax-11-en-13-yl (2R,3S)-3-(tert-butoxycarbonylamino)-3-(3-fluoro-2-pyridyl)-2-hydroxypropionate]: the Therapeutic index with B16 melanoma BL6 (B16 Melanoma BL6, iv) stood at 6.0; in the series on B16 melanoma BL6 (B16 Melanoma BL6, po) it was 4.2; in series [2] (M5076, iv), 2.0; in series [2] (M5076, po), 2.0. For the same compound, the “Effective dose range” value was in the range of 12.0 to 24.5 mg/kg in series [2] (M5076, iv) and 17.2 to 35 mg/kg in series [2] (M5076, po). Moreover, the solubility in series [1] (setting [5]) is 85 µg/mL (≈ 92 µM); in series [1] (setting [6]), 1100 µg/mL (≈ 1190 µM).

Regarding `CC(=O)O[C@@]12CO[C@@H]1CC[C@@]1(C)[C@@H]3O[C@H](CN4CC(C(=O)N(C)C)C4)O[C@@H]3C3=C(C)[C@@H](OC(=O)[C@H](O)[C@@H](NC(=O)OC(C)(C)C)c4ccccn4)C[C@@](O)([C@@H](OC(=O)c4ccccc4)[C@@H]12)C3(C)C` [Example 9, (1S,2S,3R,4S,5R,8R,9S,10R,13S)-4-(Acetoxy)-2-(benzoyloxy)-9,10-{(1S)-[2-(3-dimethylcarbamoyl)azetidino]ethylidenedioxy}-5,20-epoxy-1-hydroxytax-11-en-13-yl (2R,3S)-3-(tert-butoxycarbonylamino)-2-hydroxy-3-(2-pyridyl)propionate], the Therapeutic index in the series with B16 melanoma BL6 (B16 Melanoma BL6, po) turned out to be 6.0. Moreover, the solubility was 130 µg/mL (≈ 137 µM) in series [1] (setting [5]) and 1400 µg/mL (≈ 1480 µM) in series [1] (setting [6]).

For `CC(=O)O[C@@]12CO[C@@H]1CC[C@@]1(C)[C@@H]3O[C@H](CN4CC[C@H]4CO)O[C@@H]3C3=C(C)[C@@H](OC(=O)[C@H](O)[C@@H](NC(=O)OC(C)(C)C)c4ccccn4)C[C@@](O)([C@@H](OC(=O)c4ccccc4)[C@@H]12)C3(C)C` [Example 21, (1S,2S,3R,4S,5R,8R,9S,10R,13S)-4-(Acetoxy)-2-(benzoyloxy)-5,20-epoxy-1-hydroxy-9,10-{(1S)-2-[(2S)-2-hydroxymethylazetidino]ethylidenedioxy}tax-11-en-13-yl (2R,3S)-3-(tert-butoxycarbonylamino)-2-hydroxy-3-(2-pyridyl)propionate], in the series on B16 melanoma BL6 (B16 Melanoma BL6, po), the Therapeutic index is recorded as 5.9. Moreover, the solubility is 150 µg/mL (≈ 166 µM) in series [1] (setting [5]) and > 1000 µg/mL in series [1] (setting [6]).
